# In patent publication US9297017B2, “Methods and compositions for targeted protein degradation” (University of Washington, priority 2010, dated 2016):
# Values joined by “and” are separate entries in the source; they are usually repeats but may differ in a detail not shown here. Identical values can stand only once.
# Key:
# JAZ6F195A/COI1 = target: T1, JAZ6F195A/COI1 (Arabidopsis thaliana, UniProt O04197+Q9C9E3, F195A); assay: Binding of 3H-coronatine (300 nM) to JAZ6F195A/COI1; details: 300 nM 3H-coronatine
# T1 construct: Full-length Arabidopsis thaliana COI1 and ASK1 were co-expressed; Full-length JAZ substrate proteins were expressed as 6×His-fusion proteins in Escherichia coli; GST (cleaved yes); 6xHis; made in house; host or cells: Hi5 insect cells (COI1/ASK1); Escherichia coli (JAZ6 F195A)
# T1 sequence (O04197 1-592): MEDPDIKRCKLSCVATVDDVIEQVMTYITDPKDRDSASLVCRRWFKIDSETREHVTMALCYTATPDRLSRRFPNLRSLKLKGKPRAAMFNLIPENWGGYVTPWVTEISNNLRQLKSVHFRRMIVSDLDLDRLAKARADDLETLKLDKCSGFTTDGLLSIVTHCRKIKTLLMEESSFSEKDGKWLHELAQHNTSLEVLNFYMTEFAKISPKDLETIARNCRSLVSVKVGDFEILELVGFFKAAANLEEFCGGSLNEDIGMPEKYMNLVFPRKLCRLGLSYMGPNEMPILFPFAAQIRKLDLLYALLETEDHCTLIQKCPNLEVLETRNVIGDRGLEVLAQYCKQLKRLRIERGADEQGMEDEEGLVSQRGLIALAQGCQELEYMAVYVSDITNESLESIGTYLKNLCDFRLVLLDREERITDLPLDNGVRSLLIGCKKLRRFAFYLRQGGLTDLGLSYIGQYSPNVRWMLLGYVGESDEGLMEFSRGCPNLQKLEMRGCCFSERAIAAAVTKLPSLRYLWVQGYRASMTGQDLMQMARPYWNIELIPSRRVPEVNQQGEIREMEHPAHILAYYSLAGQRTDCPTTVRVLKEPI
# T1 sequence (Q9C9E3 1-269 F195A): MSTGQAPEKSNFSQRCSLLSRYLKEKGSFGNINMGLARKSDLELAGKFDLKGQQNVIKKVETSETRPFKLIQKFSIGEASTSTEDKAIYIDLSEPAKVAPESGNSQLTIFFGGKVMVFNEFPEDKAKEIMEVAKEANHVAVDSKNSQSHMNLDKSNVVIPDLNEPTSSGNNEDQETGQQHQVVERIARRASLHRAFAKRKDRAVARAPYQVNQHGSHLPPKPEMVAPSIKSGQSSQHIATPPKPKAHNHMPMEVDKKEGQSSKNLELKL
# T1 sequence (Q39255 1-160 partner): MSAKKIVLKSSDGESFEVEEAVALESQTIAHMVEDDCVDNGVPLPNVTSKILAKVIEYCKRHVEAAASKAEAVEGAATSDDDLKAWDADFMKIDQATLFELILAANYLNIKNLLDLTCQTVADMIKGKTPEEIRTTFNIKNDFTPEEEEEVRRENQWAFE
# Description: (§1) (^3H)-labeled coronatine was synthesized by Amersham. Full-length Arabidopsis thaliana COI1 and ASK1 were co-expressed as a glutathione S-transferase (GST) fusion protein and an untagged protein, respectively, in Hi5 suspension insect cells. The COI1/ASK1 complex was isolated from the soluble cell lysate by glutathione affinity chromatography. After on-column tag cleavage by tobacco etch virus protease, the complex was further purified by anion exchange and gel filtration chromatography and concentrated by ultrafiltration to 12-18 mg ml^−1. Full-length JAZ substrate proteins were expressed as 6×His-fusion proteins in Escherichia coli and purified on Ni-NTA resin with subsequent dialysis into 20 mM Tris-HCl, pH 8.0, 200 mM NaCl, and 10% glycerol.
# (§2) Radioligand binding was assayed on purified proteins, with 2 mg COI1/ASK1 complex and JAZ proteins at a 1:3 molar ratio. […] Nonspecific binding was determined in the presence of […] coronatine. Competition binding experiments were conducted with serial dilutions of JA-Ile in the presence of 100 nM ^3H coronatine with nonspecific binding determined in the presence of […] coronatine. Total binding was determined in the presence of vehicle only. Two-point binding experiments were performed in the presence of 100 nM or 300 nM ^3H-coronatine with nonspecific binding determined in the presence of 300 mM coronatine. […]
# COI1 = target: T2, COI1 (Arabidopsis thaliana, UniProt O04197); assay: Radioligand binding of 3H-coronatine to COI1 alone
# T2 construct: Full-length Arabidopsis thaliana COI1 and ASK1 were co-expressed; GST (cleaved yes); made in house; host or cells: Hi5 insect cells (COI1/ASK1); JAZ peptides synthetic
# T2 sequence (O04197 1-592): T1 sequence (O04197 1-592)
# T2 sequence (Q39255 1-160 partner): T1 sequence (Q39255 1-160 partner)
# Description: as §1
# Radioligand binding was assayed on purified proteins, with 2 mg COI1/ASK1 complex and JAZ proteins at a 1:3 molar ratio. Reactions were prepared in […] final volume and in a binding buffer containing 20 mM Tris-HCl 200 mM NaCl, and 10% glycerol. Saturation binding experiments were conducted with serial dilutions of 3H-coronatine in binding buffer. Nonspecific binding was determined in the presence of […] coronatine. Competition binding experiments were conducted with serial dilutions of JA-Ile in the presence of 100 nM ^3H coronatine with nonspecific binding determined in the presence of […] coronatine. Total binding was determined in the presence of vehicle only. Two-point binding experiments were performed in the presence of 100 nM or 300 nM ^3H-coronatine with nonspecific binding determined in the presence of […] coronatine. Following incubation with mixing at 4° C., all samples were collected with a cell harvester (Brandel, Gaithersburg, Md.) on polyethyleneimine (Sigma)-treated filters. […] Saturation binding experiments were analyzed by nonlinear regression, competition binding experiments by nonlinear regression with Ki calculation as described previously (Cheng 1973), and concentration-response data by sigmoidal dose-response curve fitting, all using GraphPad Prism version 4.00 for MacOSX.
# COI1/JAZ1 complex = target: T3, COI1/JAZ1 complex (Arabidopsis thaliana, UniProt O04197+Q9LMA8); assay: Saturation radioligand binding of 3H-coronatine to COI1/ASK1 in the presence of JAZ1
# T3 construct: Full-length Arabidopsis thaliana COI1 and ASK1 were co-expressed; Full-length JAZ substrate proteins were expressed as 6×His-fusion proteins in Escherichia coli; GST (cleaved yes); 6xHis; made in house; host or cells: Hi5 insect cells (COI1/ASK1); Escherichia coli (JAZ1)
# T3 sequence (O04197 1-592): T1 sequence (O04197 1-592)
# T3 sequence (Q39255 1-160 partner): T1 sequence (Q39255 1-160 partner)
# T3 sequence (Q9LMA8 1-253): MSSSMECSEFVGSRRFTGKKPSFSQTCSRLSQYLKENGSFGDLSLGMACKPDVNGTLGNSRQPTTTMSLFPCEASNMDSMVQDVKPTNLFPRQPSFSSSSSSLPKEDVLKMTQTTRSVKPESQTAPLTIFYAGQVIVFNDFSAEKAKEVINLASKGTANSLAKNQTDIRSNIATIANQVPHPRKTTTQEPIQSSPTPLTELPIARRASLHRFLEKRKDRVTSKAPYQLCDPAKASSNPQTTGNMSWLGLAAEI
# Description: as §1, §2
compound,measurement,setting,value
CC[C@H]1C=C(C(=O)N[C@@]2(C(=O)O)C[C@@H]2CC)[C@H]2CCC(=O)[C@H]2C1 [coronatine],High affinity interaction with COI1/JAZ6 after mutation of the conserved phenylalanine to alanine,JAZ6F195A/COI1,abolish the high affinity interaction
same,Specific binding to COI1 alone,COI1; 300 nM coronatine,< 2%
same,Binding affinity for COI1 alone,COI1,minimal binding affinity
same,Binding affinity for COI1 alone,COI1; listed as 3H-coronatine,no appreciable binding affinity
same,Binding affinity for COI1/JAZ1 complex,COI1/JAZ1 complex,high affinity
same,Kd,"COI1/JAZ1 complex; COI1/JAZ1 complex, listed as 3H-coronatine",68 nM and 48 nM
